The test system of this assay is LTC₄ induced contraction of guinea-pig ileum. In words: Inhibition of leukotriene (LTC₄) induced contraction of guinea-pig ileum in vitro. The assay is classed as cell-based, guinea-pig (Male Dunkin-Hartley strain). As to conditions: Cavia porcellus. As to the method: The leukotriene antagonist activity of the compounds of this invention is measured by the ability of the compounds to inhibit the leukotriene induced contraction of guinea-pig ileum in vitro as described below.
Five (5) centimeter longitudinal strips of guinea-pig ileum (Male Dunkin-Hartley strain) were bathed in modified Tyrodes buffer, containing 3µM indomethacin, in jacketed 10 mL tissue baths at 37°C and continuously aerated with 95% O₂/5% CO₂. The tissues were connected via cotton sutures to isotonic transducers. The tissues were equilibrated for 60 minutes and 100µM histamine was added to determine the maximal response of the tissues. This was removed by washout to give a steady baseline. Then the test compound, or vehicle control, was added cumulatively in half-log units until a bath concentration of 10µM was reached.
After a further equilibration period of 15 minutes, a concentration response curve to the reference agonist (LTD₄ or LTC₄) was generated. All determinations were carried out in triplicate and observations normalised against the maximal leukotriene response. Least-squares linear regression analysis was then used to calculate the concentration of leukotriene needed to elicit 50% of the maximum response and defined as the EC₅₀. […]
All compounds were measured against LTD₄ as the reference agonists except the compound of Example 65 which were measured against LTC₄.

On to `CCCCC/C=C\C\C=C/C=C/C=C/[C@@H](Sc1ccc(C(=O)O)cc1)[C@@](C)(O)CCCC(=O)O` [Example 65, 5S-Hydroxy-5-methyl-6R-(4-carboxyphenylthio)eicosa-7E,9E,11Z,14Z-tetraenoic Acid], for which the Kb was 398 nM.

(Values after patent publication EP0410244A1, “Leukotriene antagonists” (BAYER AG, priority 1989, dated 1991).)
